Source: paper PMC9861744, “Polysulfone Membranes Doped with Human Neutrophil Elastase Inhibitors: Assessment of Bioactivity and Biocompatibility” (Membranes, 2023)

Target: T1, Human neutrophil elastase (HNE) (Homo sapiens, UniProt P08246)
T1 construct: gene ELANE
T1 sequence (P08246 30-247): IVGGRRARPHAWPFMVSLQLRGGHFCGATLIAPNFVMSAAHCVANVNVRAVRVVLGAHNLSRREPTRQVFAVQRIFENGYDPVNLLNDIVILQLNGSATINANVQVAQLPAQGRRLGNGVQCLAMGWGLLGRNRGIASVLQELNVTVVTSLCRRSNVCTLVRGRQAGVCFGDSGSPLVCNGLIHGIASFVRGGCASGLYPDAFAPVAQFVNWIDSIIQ
Assay: fluorometric HNE activity assay with MeO-Suc-Ala-Ala-Pro-Val-AMC, […] min preincubation, […] °C
Format: biochemical

IC50: 18 nM
SMILES: CCC1(CC)C(=O)N(c2ccc(C(=O)O)cc2)C1=O [D4L-2]
